{"source": "patent US20240308996A1", "about": "“PYRIDOPYRIDINES AND DERIVATIVES THEREOF AS SELECTIVE KINASE INHIBITORS” (University of Sharjah, priority 2023, published 2024)", "format_in_all_cases": "cell-based", "key": {"[1]": {"test_system": "CCRF-CEM", "assay": "NCI-60 cell line panel: CCRF-CEM", "settings": "Leukemia", "description": "(§1) It was carried out at the NCI, Bethesda, MD, USA, utilizing their standard protocol."}, "[2]": {"test_system": "HL-60(TB)", "assay": "NCI-60 cell line panel: HL-60(TB)", "parameters": "TGI: unit not given here", "settings": "Leukemia", "description": "as §1"}, "[3]": {"test_system": "MOLT-4", "assay": "NCI-60 cell line panel: MOLT-4", "parameters": "TGI: unit not given here", "settings": "Leukemia", "description": "as §1"}, "[4]": {"test_system": "RPMI-8226", "assay": "NCI-60 cell line panel: RPMI-8226", "settings": "Leukemia", "description": "as §1"}, "[5]": {"test_system": "SR", "assay": "NCI-60 cell line panel: SR", "settings": "Leukemia", "description": "as §1"}, "[6]": {"test_system": "A549/ATCC", "assay": "NCI-60 cell line panel: A549/ATCC", "settings": "Non-Small Cell Lung Cancer", "description": "as §1"}, "[7]": {"test_system": "HOP-92", "assay": "NCI-60 cell line panel: HOP-92", "parameters": "TGI: unit not given here", "settings": "Non-Small Cell Lung Cancer", "description": "as §1"}, "[8]": {"test_system": "NCI-H226", "assay": "NCI-60 cell line panel: NCI-H226", "settings": "Non-Small Cell Lung Cancer", "description": "as §1"}, "[9]": {"test_system": "NCI-H23", "assay": "NCI-60 cell line panel: NCI-H23", "settings": "Non-Small Cell Lung Cancer", "description": "as §1"}, "[10]": {"test_system": "NCI-H322M", "assay": "NCI-60 cell line panel: NCI-H322M", "settings": "Non-Small Cell Lung Cancer", "description": "as §1"}, "[11]": {"test_system": "HCT-15", "assay": "NCI-60 cell line panel: HCT-15", "settings": "Colon Cancer", "description": "as §1"}, "[12]": {"test_system": "KM12", "assay": "NCI-60 cell line panel: KM12", "settings": "Colon Cancer", "description": "as §1"}, "[13]": {"test_system": "SF-268", "assay": "NCI-60 cell line panel: SF-268", "settings": "CNS Cancer", "description": "as §1"}, "[14]": {"test_system": "LOX IMVI", "assay": "NCI-60 cell line panel: LOX IMVI", "settings": "Melanoma", "description": "as §1"}, "[15]": {"test_system": "M14", "assay": "NCI-60 cell line panel: M14", "settings": "Melanoma", "description": "as §1"}, "[16]": {"test_system": "MDA-MB-435", "assay": "NCI-60 cell line panel: MDA-MB-435", "parameters": "TGI: unit not given here", "settings": "Melanoma", "description": "as §1"}, "[17]": {"test_system": "SK-MEL-5", "assay": "NCI-60 cell line panel: SK-MEL-5", "settings": "Melanoma", "description": "as §1"}, "[18]": {"test_system": "OVCAR-5", "assay": "NCI-60 cell line panel: OVCAR-5", "settings": "Ovarian Cancer", "description": "as §1"}, "[19]": {"test_system": "OVCAR-8", "assay": "NCI-60 cell line panel: OVCAR-8", "settings": "Ovarian Cancer", "description": "as §1"}, "[20]": {"test_system": "SK-OV-3", "assay": "NCI-60 cell line panel: SK-OV-3", "settings": "Ovarian Cancer", "description": "as §1"}, "[21]": {"test_system": "A498", "assay": "NCI-60 cell line panel: A498", "settings": "Renal Cancer", "description": "as §1"}, "[22]": {"test_system": "RXF 393", "assay": "NCI-60 cell line panel: RXF 393", "settings": "Renal Cancer", "description": "as §1"}, "[23]": {"test_system": "PC-3", "assay": "NCI-60 cell line panel: PC-3", "settings": "Prostate Cancer", "description": "as §1"}, "[24]": {"test_system": "DU-145", "assay": "NCI-60 cell line panel: DU-145", "settings": "Prostate Cancer", "description": "as §1"}, "[25]": {"test_system": "MDA-MB-468", "assay": "NCI-60 cell line panel: MDA-MB-468", "settings": "Breast Cancer", "description": "as §1"}, "[26]": {"test_system": "hepatocellular carcinoma cell lines", "assay": "Screening against HCC cell lines", "description": "The target compounds were tested against hepatocellular carcinoma cell lines. Compounds 1j. 13a. 13b. 13c. […] The mean inhibition percentage values are illustrated in Table 9.\nTwo HCC cell lines (Hep3B and HepG2) were used for screening the antiproliferative activity of the synthesized compounds. The cell lines were obtained from the European Collection of Cell Cultures (ECACC, UK) and maintained in Dulbecco's Modified Eagle Medium (DMEM: Sigma-Aldrich) supplemented with 10% fetal bovine serum (FBS) and 1% penicillin/streptomycin and incubated at 37° C. in a 5% CO2 air atmosphere. In addition, WI-38 normal cell line was used to investigate the safety of these compounds.\nMTT assay was conducted to calculate the IC50 of the compounds following the reported procedure . Briefly, the cells were seeded in 96-well tissue culture plates with a density of 5×10^4 cells/well and incubated overnight at 37° C. in a 5% CO2 air atmosphere. After that, cells were treated with the newly synthesized compounds or sorafenib as a positive control. DMSO was used as a negative control. After 48 h, the media were aspirated, and replaced with media containing 0.5 mg/mL of MTT tetrazolium dye (Sigma-Aldrich) for 2 h at 37° C. Finally, the media were removed and 200 μL of DMSO was added to solubilize the formazan crystals. Absorbance was then measured at 570 nm using Varioskan Flash multimode plate reader (Thermo Scientific, Massachusetts, USA)."}}}
{"molecule": "CCN1CCN(c2ccc(NC(=O)Nc3ccc(-c4cc(C(=O)NC)c5ncccc5n4)cc3)cc2C(F)(F)F)CC1", "note": "[Compound 13c, 2-(4-(3-(4-(4-Ethylpiperazin-1-yl)-3-(trifluoromethyl)phenyl)ureido)phenyl)-N-methyl-1,5-naphthyridine-4-carboxamide]", "values": [{"measurement": "IC50", "setting": "[1]; Homo sapiens", "result": 460, "unit": "nM"}, {"measurement": "TGI", "setting": "[1]; total growth inhibition", "result": 1270, "unit": "nM"}, {"measurement": "IC50", "setting": "[2]; Homo sapiens", "result": 3420, "unit": "nM"}, {"measurement": "TGI", "setting": "[2]; total growth inhibition", "result": ">18.0"}, {"measurement": "IC50", "setting": "[3]; Homo sapiens", "result": 700, "unit": "nM"}, {"measurement": "TGI", "setting": "[3]; total growth inhibition", "result": ">18.0"}, {"measurement": "IC50", "setting": "[4]; Homo sapiens", "result": 3050, "unit": "nM"}, {"measurement": "TGI", "setting": "[4]; total growth inhibition", "result": "> 18000", "unit": "nM"}, {"measurement": "IC50", "setting": "[5]; Homo sapiens", "result": 670, "unit": "nM"}, {"measurement": "TGI", "setting": "[5]; total growth inhibition", "result": "> 18000", "unit": "nM"}, {"measurement": "IC50", "setting": "[6]; Homo sapiens", "result": 470, "unit": "nM"}, {"measurement": "TGI", "setting": "[6]; total growth inhibition", "result": 1300, "unit": "nM"}, {"measurement": "IC50", "setting": "[7]; Homo sapiens", "result": 2450, "unit": "nM"}, {"measurement": "TGI", "setting": "[7]; total growth inhibition", "result": 5.67}, {"measurement": "IC50", "setting": "[8]; Homo sapiens", "result": 2700, "unit": "nM"}, {"measurement": "TGI", "setting": "[8]; total growth inhibition", "result": 6360, "unit": "nM"}, {"measurement": "IC50", "setting": "[9]; Homo sapiens", "result": 2680, "unit": "nM"}, {"measurement": "TGI", "setting": "[9]; total growth inhibition", "result": 5680, "unit": "nM"}, {"measurement": "IC50", "setting": "[10]; Homo sapiens", "result": 2800, "unit": "nM"}, {"measurement": "TGI", "setting": "[10]; total growth inhibition", "result": 5200, "unit": "nM"}, {"measurement": "TGI", "setting": "[11]; total growth inhibition", "result": 700, "unit": "nM"}, {"measurement": "IC50", "setting": "[11]; Homo sapiens", "result": 330, "unit": "nM"}, {"measurement": "TGI", "setting": "[12]; total growth inhibition", "result": 6650, "unit": "nM"}, {"measurement": "IC50", "setting": "[12]; Homo sapiens", "result": 3250, "unit": "nM"}, {"measurement": "TGI", "setting": "[13]; total growth inhibition", "result": 7000, "unit": "nM"}, {"measurement": "IC50", "setting": "[13]; Homo sapiens", "result": 3090, "unit": "nM"}, {"measurement": "IC50", "setting": "[14]; Homo sapiens", "result": 670, "unit": "nM"}, {"measurement": "TGI", "setting": "[14]; total growth inhibition", "result": 2660, "unit": "nM"}, {"measurement": "IC50", "setting": "[15]; Homo sapiens", "result": 400, "unit": "nM"}, {"measurement": "TGI", "setting": "[15]; total growth inhibition", "result": 1050, "unit": "nM"}, {"measurement": "IC50", "setting": "[16]; Homo sapiens", "result": 270, "unit": "nM"}, {"measurement": "TGI", "setting": "[16]; total growth inhibition", "result": 0.56}, {"measurement": "IC50", "setting": "[17]; Homo sapiens", "result": 2050, "unit": "nM"}, {"measurement": "TGI", "setting": "[17]; total growth inhibition", "result": 4260, "unit": "nM"}, {"measurement": "IC50", "setting": "[18]; Homo sapiens", "result": 2820, "unit": "nM"}, {"measurement": "TGI", "setting": "[18]; total growth inhibition", "result": 5230, "unit": "nM"}, {"measurement": "IC50", "setting": "[19]; Homo sapiens", "result": 3850, "unit": "nM"}, {"measurement": "TGI", "setting": "[19]; total growth inhibition, in µM (unit assumed)", "result": 10.50}, {"measurement": "IC50", "setting": "[20]; Homo sapiens", "result": 3480, "unit": "nM"}, {"measurement": "TGI", "setting": "[20]; total growth inhibition", "result": 7500, "unit": "nM"}, {"measurement": "IC50", "setting": "[21]; Homo sapiens", "result": 2740, "unit": "nM"}, {"measurement": "TGI", "setting": "[21]; total growth inhibition", "result": 5310, "unit": "nM"}, {"measurement": "IC50", "setting": "[22]; Homo sapiens", "result": 490, "unit": "nM"}, {"measurement": "TGI", "setting": "[22]; total growth inhibition", "result": 1660, "unit": "nM"}, {"measurement": "IC50", "setting": "[23]; Homo sapiens", "result": 2880, "unit": "nM"}, {"measurement": "TGI", "setting": "[23]; total growth inhibition", "result": 6030, "unit": "nM"}, {"measurement": "IC50", "setting": "[24]; Homo sapiens", "result": 2230, "unit": "nM"}, {"measurement": "TGI", "setting": "[24]; total growth inhibition", "result": 4900, "unit": "nM"}, {"measurement": "TGI", "setting": "[25]; total growth inhibition", "result": 5030, "unit": "nM"}, {"measurement": "IC50", "setting": "[25]; Homo sapiens", "result": 2480, "unit": "nM"}, {"measurement": "inhibition activity against hepatocellular carcinoma cell lines compared with sorafenib", "setting": "[26]", "result": "higher inhibition activity than sorafenib"}]}
